The experiment addresses T1, CDK2/Cyclin E complex (Homo sapiens, UniProt P24941).
T1 construct: purchased Eurofins 14-475
Nature of the experiment: CDK2/Cyclin E fluorescence-based microfluidic mobility shift assay (CDK2 Biochemical Caliper Assay). Particulars: read-out: Biochemical CDK2/CyclinE Caliper IC50. The procedure, abridged:
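Microfluidic mobility-shift readout after EDTA termination measured phosphorylation of fluorescent FL Peptide 18 (1.5 uM final) in a 20 hr room-temperature reaction. Compounds were tested at 11 concentrations (3-fold).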

This note sets out measurements from patent US20240190855A1 (Relay Therapeutics, Inc., priority 2021, published 2024).

pIC50: −log10 of the molar value. Bounds are passed on as bounds.

As for `CCc1ccnnc1O[C@@H]1CC[C@H](c2cc(NC(=O)c3cc(COC)nn3C)n[nH]2)C1` (single isomer, unassigned) [Example 509], the pIC50 is ≥ 7.00.
Take `CCc1ccnnc1O[C@H]1CC[C@@H](c2cc(NC(=O)c3cc(COC)nn3C)n[nH]2)C1` (single isomer, unassigned) [Example 510]: the pIC50 is ≥ 7.00.
`COCc1cc2c(Nc3cc([C@H]4CC[C@@H](Oc5cccnc5C)C4)[nH]n3)nccn2n1` (single isomer, unassigned) [Example 511]: the pIC50 is 4.00 to 6.00.
`COCc1cc2c(Nc3cc([C@@H]4CC[C@H](Oc5cccnc5C)C4)[nH]n3)nccn2n1` (single isomer, unassigned) [Example 512]: the pIC50 is 6.60 to 7.00.
Turning to `COCc1cc2c(Nc3cc([C@H]4CC[C@@H](Oc5cccnc5)C4)[nH]n3)nccn2n1` (single isomer, unassigned) [Example 525], the pIC50 is 4.00 to 6.00.
As for `COCc1cc2c(Nc3cc([C@@H]4CC[C@H](Oc5cccnc5)C4)[nH]n3)nccn2n1` (single isomer, unassigned) [Example 526], the pIC50 was 6.60 to 7.00.
With `CC(C)NC(=O)O[C@@H]1CC[C@H](c2cc(Nc3ccc4c(n3)C(C)(C)NC4=O)n[nH]2)C1` (single isomer, unassigned) [Example 527], the pIC50 was ≥ 7.00.
The value for `CC(C)NC(=O)O[C@H]1CC[C@@H](c2cc(Nc3ccc4c(n3)C(C)(C)NC4=O)n[nH]2)C1` (single isomer, unassigned) [Example 528] was ≥ 7.00; that for `CNC(=O)O[C@@H]1CC[C@H](c2cc(Nc3ccc4c(n3)C(C)(C)NC4=O)n[nH]2)C1` (single isomer, unassigned) [Example 529] was ≥ 7.00; that for `CNC(=O)O[C@H]1CC[C@@H](c2cc(Nc3ccc4c(n3)C(C)(C)NC4=O)n[nH]2)C1` (single isomer, unassigned) [Example 530] was ≥ 7.00.
The value for `COCc1cc(C(=O)Nc2cc([C@@H]3CC[C@H](Oc4nccnc4C(C)C)C3)[nH]n2)n(C)n1` (single isomer, unassigned) [Example 531] was ≥ 7.00; that for `COCc1cc(C(=O)Nc2cc([C@H]3CC[C@@H](Oc4nncc5cnccc45)C3)[nH]n2)n(C)n1` (single isomer, unassigned) [Example 534] was ≥ 7.00.
In the case of `COCc1cc(C(=O)Nc2cc([C@@H]3CC[C@H](Oc4nncc5cnccc45)C3)[nH]n2)n(C)n1` (single isomer, unassigned) [Example 535], the pIC50 is 6.00 to 6.60.
In the case of `COCc1cc(C(=O)Nc2cc([C@@H]3C[C@H](Oc4cnccc4C4CC4)CO3)[nH]n2)n(C)n1` (single isomer, unassigned) [Example 538], the pIC50 was 4.00 to 6.00.
As for `COCc1cc(C(=O)Nc2cc([C@H]3C[C@@H](Oc4cnccc4C4CC4)CO3)[nH]n2)n(C)n1` (single isomer, unassigned) [Example 539], the pIC50 was 6.00 to 6.60.
Consider `COCc1cc(C(=O)Nc2cc([C@H]3CC[C@@H](c4ccc(C)[nH]c4=O)C3)[nH]n2)n(C)n1` (single isomer, unassigned) [Example 542], for which the pIC50 was 6.00 to 6.60.
The value for `COCc1cc(C(=O)Nc2cc([C@@H]3CC[C@H](c4ccc(C)[nH]c4=O)C3)[nH]n2)n(C)n1` (single isomer, unassigned) [Example 543] was 4.00 to 6.00.
Take `Cc1ncccc1O[C@@H]1CC[C@H](c2cc(Nc3ccc4c(c3)C(C)(C)NC4=O)n[nH]2)C1` (single isomer, unassigned) [Example 546]: the pIC50 is ≥ 7.00.
On to `Cc1ncccc1O[C@H]1CC[C@@H](c2cc(Nc3ccc4c(c3)C(C)(C)NC4=O)n[nH]2)C1` (single isomer, unassigned) [Example 547], for which the pIC50 is ≥ 7.00.
With `CC(C)NC(=O)O[C@@H]1CC[C@H](c2cc(Nc3ccc4c(c3)C(C)(C)NC4=O)n[nH]2)C1` (single isomer, unassigned) [Example 548], the pIC50 is ≥ 7.00.
The value for `CC(C)NC(=O)O[C@H]1CO[C@@H](c2cc(Nc3ccc4c(c3)C(C)(C)NC4=O)n[nH]2)C1` (single isomer, unassigned) [Example 549] was ≥ 7.00; that for `COCc1cc(C(=O)Nc2cc([C@H]3CC[C@@H](Oc4nnccc4C4CCC4)C3)[nH]n2)n(C)n1` (single isomer, unassigned) [Example 550] was ≥ 7.00; that for `COCc1cc(C(=O)Nc2cc([C@@H]3CC[C@H](Oc4nnccc4C4CCC4)C3)[nH]n2)n(C)n1` (single isomer, unassigned) [Example 551] was ≥ 7.00.
For `COCc1cc(C(=O)Nc2cc([C@H]3CC[C@@H](c4ccc(C(C)C)cn4)C3)[nH]n2)n(C)n1` (single isomer, unassigned) [Example 552], the pIC50 was 4.00 to 6.00.
The value for `COCc1cc(C(=O)Nc2cc([C@@H]3CC[C@H](c4ccc(C(C)C)cn4)C3)[nH]n2)n(C)n1` (single isomer, unassigned) [Example 553] was 4.00 to 6.00; that for `COCc1cc(C(=O)Nc2cc([C@H]3CC[C@@H](Cc4ncc(C)s4)C3)[nH]n2)n(C)n1` (single isomer, unassigned) [Example 554] was 4.00 to 6.00.
For the compound `COCc1cc(C(=O)Nc2cc([C@@H]3CC[C@H](Cc4ncc(C)s4)C3)[nH]n2)n(C)n1` (single isomer, unassigned) [Example 555], the pIC50 was 6.00 to 6.60.
With `COCc1cc(C(=O)Nc2cc([C@@H]3CC[C@@H](Cc4ncc(C)s4)C3)[nH]n2)n(C)n1` (single isomer, unassigned) [Example 556], the pIC50 was 4.00 to 6.00.
The value for `COCc1cc(C(=O)Nc2cc([C@H]3CC[C@H](Cc4ncc(C)s4)C3)[nH]n2)n(C)n1` (single isomer, unassigned) [Example 557] was 4.00 to 6.00; that for `CC(C)NC(=O)O[C@@H]1CC[C@H](c2cc(Nc3cncc(OCCO)n3)n[nH]2)C1` (single isomer, unassigned) [Example 563] was ≥ 7.00.
With `CC(C)NC(=O)O[C@H]1CC[C@@H](c2cc(Nc3cncc(OCCO)n3)n[nH]2)C1` (single isomer, unassigned) [Example 564], the pIC50 is ≥ 7.00.
As for `CC1(C)NC(=O)c2ccc(Nc3cc([C@H]4CC[C@@H](Oc5cccnc5)C4)[nH]n3)cc21` (single isomer, unassigned) [Example 565], the pIC50 was ≥ 7.00.
With `COCc1cc(C(=O)Nc2cc([C@H]3C[C@H](OC)[C@@H](OC(=O)NC(C)C)C3)[nH]n2)n(C)n1` (single isomer, unassigned) [Example 567], the pIC50 was 4.00 to 6.00.
Regarding `COCc1cc(C(=O)Nc2cc([C@@H]3C[C@@H](OC)[C@H](OC(=O)NC(C)C)C3)[nH]n2)n(C)n1` (single isomer, unassigned) [Example 568], the pIC50 was 4.00 to 6.00.
Turning to `COCc1cc(C(=O)Nc2cc([C@@H]3C[C@H](OC)[C@@H](OC(=O)NC(C)C)C3)[nH]n2)n(C)n1` (single isomer, unassigned) [Example 569], the pIC50 was 4.00 to 6.00.
On to `COCc1cc(C(=O)Nc2cc([C@H]3C[C@@H](OC)[C@H](OC(=O)NC(C)C)C3)[nH]n2)n(C)n1` (single isomer, unassigned) [Example 570], for which the pIC50 was 4.00 to 6.00.
The value for `COCc1cc(C(=O)Nc2cc([C@H]3CC[C@@H](c4ccc(C)nn4)C3)[nH]n2)n(C)n1` (single isomer, unassigned) [Example 572] was 4.00 to 6.00; that for `COCc1cc(C(=O)Nc2cc([C@@H]3CC[C@H](c4ccc(C)nn4)C3)[nH]n2)n(C)n1` (single isomer, unassigned) [Example 573] was 4.00 to 6.00.
As for `COCc1cc(C(=O)Nc2cc([C@@H]3CC[C@@H](c4ccc(C)nn4)C3)[nH]n2)n(C)n1` (single isomer, unassigned) [Example 574], the pIC50 is 4.00 to 6.00.
Consider `COCc1cc(C(=O)Nc2cc([C@H]3CC[C@H](c4ccc(C)nn4)C3)[nH]n2)n(C)n1` (single isomer, unassigned) [Example 575], for which the pIC50 is 4.00 to 6.00.
For the compound `COCc1cc(C(=O)Nc2cc([C@H]3CC[C@@H](c4cnc(C)cn4)C3)[nH]n2)n(C)n1` (single isomer, unassigned) [Example 576], the pIC50 was 4.00 to 6.00.
On to `COCc1cc(C(=O)Nc2cc([C@@H]3CC[C@H](c4cnc(C)cn4)C3)[nH]n2)n(C)n1` (single isomer, unassigned) [Example 577], for which the pIC50 was 4.00 to 6.00.
Consider `COCc1cc(C(=O)Nc2cc([C@@H]3CC[C@@H](c4cnc(C)cn4)C3)[nH]n2)n(C)n1` (single isomer, unassigned) [Example 578], for which the pIC50 is 4.00 to 6.00.
In the case of `COCc1cc(C(=O)Nc2cc([C@H]3CC[C@H](c4cnc(C)cn4)C3)[nH]n2)n(C)n1` (single isomer, unassigned) [Example 579], the pIC50 is 4.00 to 6.00.
Regarding `COCc1cc2c(Nc3cc([C@@H]4C[C@H](OC(=O)N5[C@@H](C)CC[C@@H]5C)CO4)[nH]n3)nccn2n1` (single isomer, unassigned) [Example 580], the pIC50 is ≥ 7.00.
Take `COCc1cc2c(Nc3cc([C@H]4C[C@@H](OC(=O)N5[C@@H](C)CC[C@@H]5C)CO4)[nH]n3)nccn2n1` (single isomer, unassigned) [Example 581]: the pIC50 was ≥ 7.00.
Regarding `CC(C)c1[nH]ncc1O[C@@H]1CO[C@H](c2cc(Nc3nccn4nccc34)n[nH]2)C1` (single isomer, unassigned) [Example 584], the pIC50 was 4.00 to 6.00.
With `CC(C)c1[nH]ncc1O[C@H]1CO[C@@H](c2cc(Nc3nccn4nccc34)n[nH]2)C1` (single isomer, unassigned) [Example 585], the pIC50 was 4.00 to 6.00.
Consider `C[C@H]1CC[C@H](C)N1C(=O)O[C@@H]1CO[C@H](c2cc(Nc3ccc4c(c3)C(C)(C)NC4=O)n[nH]2)C1` (single isomer, unassigned) [Example 590], for which the pIC50 was ≥ 7.00.
As for `C[C@H]1CC[C@H](C)N1C(=O)O[C@H]1CO[C@@H](c2cc(Nc3ccc4c(c3)C(C)(C)NC4=O)n[nH]2)C1` (single isomer, unassigned) [Example 591], the pIC50 was ≥ 7.00.
